Test results taken from patent US20230339835A1, “2,3,5-TRIMETHYL-6-NONYLCYCLOHEXA-2,5-DIENE-1,4-DIONE FOR SUPPRESSING AND TREATING ALPHA-SYNUCLEINOPATHIES, TAUOPATHIES, AND OTHER DISORDERS” (PTC THERAPEUTICS, INC., priority 2018, published 2023).

Legend:
[1] = Solvent screening for recrystallization (solubility of C9); assay type: physicochemical; conditions: for Hot to RT result: allowed to cool to RT; for RT to Cold result: cooled to 0° C.; for Hot Result: heated to approximately 45-50° C.
Method: 100 mg of C9 was placed in test tubes and solvent added and any change noted. Samples were then heated briefly with a heat gun (heating to approximately 45-50° C.), the solubility noted, allowed to cool to RT and solubility noted, then cooled to 0° C. and the solubility noted.

[2] = tested on: AD patient fibroblasts ND34730; test: Rescue of AD patient fibroblasts from BSO plus iron-induced oxidative stress, ND34730; assay type: cell-based; conditions: Homo sapiens, Fibroblast
Method: (§1) An initial screen was performed to identify the effectiveness of compounds for the amelioration of PD and AD. Test samples and solvent controls were tested for their ability to rescue PD and AD fibroblasts stressed by addition of L-buthionine-(S,R)-sulfoximine (BSO, a specific inhibitor of GSH synthetase) plus iron (e.g. iron citrate), in a similar manner as that described in Jauslin et al., Hum. Mol. Genet. 11(24):3055 (2002), Jauslin et al., FASEB J. 17:1972-4 (2003), and International Patent Application WO 2004/003565. This specific BSO-mediated cell death was prevented or ameliorated by administration of compounds described herein.
(§2) The AD experiments were performed as follows. PD experiments were performed in a similar manner; certain specific conditions are noted below in Table 1A.
(§3) MEM (a medium enriched in amino acids and vitamins) and Medium 199 (M199) with Earle's Balanced Salts (EBS), without phenol red, were purchased from Invitrogen. Fetal Calf Serum was obtained from Corning. […]
(§4) 100 microliters of Calcein AM (1 microM) in PBS+Ca+Mg was then added to each well. […] After that time fluorescence (excitation/emission wavelengths of 485 nm and 525 nm, respectively) was read on a Spectramax fluorescence reader. Data were analyzed using standard four-parameter curve fit algorithms (XLFit or Prism) to determine the EC50 concentration for each compound.

[3] = tested on: AD patient fibroblasts ND41001; test: Rescue of AD patient fibroblasts from BSO plus iron-induced oxidative stress, ND41001; assay type: cell-based; conditions: Homo sapiens, Fibroblast
Method: as §1, §2, §3, §4

[4] = tested on: AD patient fibroblasts AG11414; test: Rescue of AD patient fibroblasts from BSO plus iron-induced oxidative stress, AG11414; assay type: cell-based; conditions: Homo sapiens, Fibroblast
Method: as §1, §2, §3, §4

[5] = 70% IPA/H2O, approx conc. 100 mg/mL
[6] = 80% EtOH, approx conc. 50 mg/mL
[7] = 80% EtOH, approx conc. 100 mg/mL
[8] = 95% EtOH, approx conc. 100 mg/mL
[9] = Iron citrate (50 μM) + BSO (50 μM)
[10] = Iron citrate (100 μM) + BSO (25 μM)

SMILES: CCCCCCCCCC1=C(C)C(=O)C(C)=C(C)C1=O [Compound C9, 2,3,5-trimethyl-6-nonylcyclohexa-2,5-diene-1,4-dione]
- RT result [1, 5]: slightly
- Hot to RT result [1, 5]: slightly soluble
- RT to Cold result [1, 5]: slightly soluble-
- Hot Result [1, 5]: mostly
- RT result [1, 6]: partially
- Hot to RT result [1, 6]: partially
- RT to Cold result [1, 6]: slightly
- Hot Result [1, 6]: melted
- RT result [1, 7]: partially
- Hot to RT result [1, 7]: partially soluble
- RT to Cold result [1, 7]: slightly soluble
- Hot Result [1, 7]: melted
- RT result [1, 8]: partially
- Hot to RT result [1, 8]: partially soluble
- RT to Cold result [1, 8]: mostly insoluble
- Hot Result [1, 8]: soluble
- RT result ([1]; EtOH, approx conc. 100 mg/mL): partially
- Hot to RT result ([1]; EtOH, approx conc. 100 mg/mL): slightly soluble
- RT to Cold result ([1]; EtOH, approx conc. 100 mg/mL): partially soluble-
- Hot Result ([1]; EtOH, approx conc. 100 mg/mL): soluble
- RT result ([1]; IPA, approx conc. 100 mg/mL): soluble
- Hot to RT result ([1]; IPA, approx conc. 100 mg/mL): soluble
- RT to Cold result ([1]; IPA, approx conc. 100 mg/mL): partially soluble-
- Hot Result ([1]; IPA, approx conc. 100 mg/mL): soluble
- RT result ([1]; MeCN, approx conc. 100 mg/mL): soluble
- Hot to RT result ([1]; MeCN, approx conc. 100 mg/mL): soluble
- RT to Cold result ([1]; MeCN, approx conc. 100 mg/mL): mostly soluble-
- Hot Result ([1]; MeCN, approx conc. 100 mg/mL): soluble
- RT result ([1]; MeOH, approx conc. 100 mg/mL): slightly
- Hot to RT result ([1]; MeOH, approx conc. 100 mg/mL): slightly soluble
- RT to Cold result ([1]; MeOH, approx conc. 100 mg/mL): insoluble-long needles
- Hot Result ([1]; MeOH, approx conc. 100 mg/mL): soluble
- RT result ([1]; THF, approx conc. 100 mg/mL): soluble
- Hot to RT result ([1]; THF, approx conc. 100 mg/mL): soluble
- RT to Cold result ([1]; THF, approx conc. 100 mg/mL): soluble
- Hot Result ([1]; THF, approx conc. 100 mg/mL): soluble
- RT result ([1]; water, approx conc. 10 mg/mL): insoluble
- Hot to RT result ([1]; water, approx conc. 10 mg/mL): insoluble
- RT to Cold result ([1]; water, approx conc. 10 mg/mL): insoluble
- Hot Result ([1]; water, approx conc. 10 mg/mL): insoluble
- EC50 [2, 9]: 15 nM
- EC50 [2, 10]: 24 nM
- EC50 [3, 9]: 13 nM
- EC50 [3, 10]: 17 nM
- EC50 ([4]; Iron citrate (100 μM) + BSO (100 μM)): 11 nM
- EC50 ([4]; Iron citrate (200 μM) + BSO (100 μM)): 23 nM
